The test system of assay [1] is Jurkat NFκB-luciferase cells. Briefly: Jurkat NFκB-Luciferase Assay.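 Note: bioluminescence read-out normalized to DMSO basal activation and to maximum enhancement at 1 µM compound, rising signal indicating stronger T-cell activation through DGKα inhibition.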 The following applies: Homo sapiens; Jurkat NFκB-luciferase cells activated with anti-CD3 antibody (OKT3), 2.5 hrs at 37° C., One-Glo Ex; geometric mean; read-out: DGK NFKb Luciferase EC50. Format: cell-based.
Procedure: The activity of compounds was tested in a cell based NFκB reporter assay. Jurkat cells that are stably expressing a luciferase reporter construct under the transcriptional control of a NFκB reporter element were activated with an anti-CD3 antibody and luciferase levels were measured with a bioluminescence readout.
The day after, the excess antibody was washed out five times with 100 ul/well of assay medium (RPMI supplemented with 10% fetal bovine serum) using a Biotek EL406 instrument and leaving 20 µl of residual volume in each well. Jurkat NFκB-luciferase cells (Promega #) were harvested and diluted to 1 million cells/ml in assay medium. Sixty nanoliters of test compound dissolved in DMSO at various concentrations were dispensed into 384-well v-bottom polypropylene plates (Greiner) using a Labcyte Echo instrument. Thirty microliters of medium containing the Jurkat NFκB-luciferase cells were then dispensed using a Biotek MicroFlo instrument in each well of the compound-containing plate. The medium/cell/compound mixture was mixed with a Bravo instrument and 20 ul/well of the mixture was transferred to the anti-CD3-coated plate. The assay mixture was then incubated for 2.5 hrs at 37° C. followed by equilibration at 25° C. for 30 min. Forty microliters of One-Glo Ex (Promega) was then added to the assay mixture and luciferase activity was read on a Envision plate reader 7 minutes later.
Bioluminescence data were normalized based on maximum enhancement (1 micromolar of compound) and on basal activation (DMSO) controls. Least squares curve fittings were performed using a four-parameter variable slope nonlinear regression model. […] EC50 values from multiple experiments were averaged by geometric mean and the standard deviation was calculated.
The target in assay [2] is T1, human DGKα (Homo sapiens, UniProt P23743).
T1 construct: purchased Carna Biosciences'; inferred from the same paragraph's 'obtained from Carna Biosciences')
Briefly: DGKα Biochemical Activity Assay (ADP-Glo).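 Note: recombinant enzyme converting diacylglycerol in lipid micelles with ATP, ADP formed detected by luminescence, IC50 from a four-parameter nonlinear fit, geometric mean across experiments.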 A general note: ADP-Glo turns the ADP formed in a reaction into a luminescent signal.

Here are results for 29 compounds from patent publication US11932634B2 (Gilead Sciences, Inc., priority 2021, dated 2024).

The pEC50 is −log10 of the EC50, conventionally taken in molar units. As a reminder, the pIC50 is −log10 of the IC50, conventionally taken in molar units.

The structures appear in SMILES notation. pEC50, pIC50: −log10 of the molar value.

T1 sequence (P23743 whole entry): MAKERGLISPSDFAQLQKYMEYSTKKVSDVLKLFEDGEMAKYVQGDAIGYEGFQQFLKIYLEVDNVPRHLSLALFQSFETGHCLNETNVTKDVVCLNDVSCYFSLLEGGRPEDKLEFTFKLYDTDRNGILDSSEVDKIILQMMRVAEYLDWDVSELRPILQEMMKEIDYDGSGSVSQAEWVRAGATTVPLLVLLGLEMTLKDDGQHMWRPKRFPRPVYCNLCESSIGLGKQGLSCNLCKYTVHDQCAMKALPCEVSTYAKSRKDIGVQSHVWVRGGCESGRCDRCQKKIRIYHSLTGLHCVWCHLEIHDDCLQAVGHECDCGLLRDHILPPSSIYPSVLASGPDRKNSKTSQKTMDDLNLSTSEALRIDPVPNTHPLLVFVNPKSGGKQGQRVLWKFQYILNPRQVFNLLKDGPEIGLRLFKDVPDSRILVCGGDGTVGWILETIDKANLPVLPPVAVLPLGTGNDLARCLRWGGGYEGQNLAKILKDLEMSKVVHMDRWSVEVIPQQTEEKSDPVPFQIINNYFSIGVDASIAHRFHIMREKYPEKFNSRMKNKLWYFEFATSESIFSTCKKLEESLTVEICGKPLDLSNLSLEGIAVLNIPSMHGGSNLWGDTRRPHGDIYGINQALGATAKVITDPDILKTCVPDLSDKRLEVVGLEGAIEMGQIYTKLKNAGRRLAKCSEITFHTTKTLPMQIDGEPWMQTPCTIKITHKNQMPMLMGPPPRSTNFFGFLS

For `[2H]C([2H])([2H])n1c(=O)nc(N2CCOCc3c(Br)cccc32)c2c(F)cccc21` [Example 99, 4-(6-bromo-2,3-dihydrobenzo[e][1,4]oxazepin-1(5H)-yl)-5-fluoro-1-(methyl-d3)quinazolin-2(1H)-one], the pEC50 in assay [1] is 8.09. In assay [2], this compound showed a pIC50 of 7.51.

Regarding `[2H]C([2H])([2H])n1c(=O)nc(N2CCOCc3c(C#CC4(C(F)(F)F)CC4)cccc32)c2c(F)cccc21` [Example 100, 5-fluoro-1-(methyl-d3)-4-(6-((1-(trifluoromethyl)cyclopropyl)ethynyl)-2,3-dihydrobenzo[e][1,4]oxazepin-1(5H)-yl)quinazolin-2(1H)-one], in assay [1], the pEC50 is 9.01. Besides, the negative-log IC50 (pIC50) in assay [2] was 7.78.

For the compound `[2H]C([2H])([2H])n1c(=O)nc(N2CCOCc3c(C#CC4(C)COC4)cccc32)c2c(F)cccc21` [Example 101, 5-fluoro-1-(methyl-d3)-4-(6-((3-methyloxetan-3-yl)ethynyl)-2,3-dihydrobenzo[e][1,4]oxazepin-1(5H)-yl)quinazolin-2(1H)-one], in assay [1], the pEC50 was 8.39. This compound showed a negative-log IC50 (pIC50) in assay [2] of 8.58.

Take `O=c1nc(N2CCOCc3c(C#CC4(C(F)(F)F)CC4)cccc32)c2cc(F)cc(F)c2[nH]1` [Example 102]: the negative logarithm of the EC50 (pEC50) in assay [1] was 8.76. Further, the negative logarithm of the IC50 (pIC50) in assay [2] is 7.83.

In the case of `CC(C)(O)C#Cc1cccc2c1COCCN2c1nc(=O)[nH]c2c(F)cc(F)cc12` [Example 103], the pEC50 in assay [1] is 7.32. The same compound gave a pIC50 in assay [2] of 8.05.

For the compound `CC(C)(C#N)C#Cc1cccc2c1COCCN2c1nc(=O)[nH]c2c(F)cc(F)cc12` [Example 104], the pEC50 in assay [1] is 8.28. In assay [2], the pIC50 was 8.31.

On to `CC1(C#Cc2cccc3c2COCCN3c2nc(=O)[nH]c3c(F)cc(F)cc23)CC1` [Example 105], for which, in assay [1], the pEC50 is 9.07. In assay [2], this compound gave a negative-log IC50 (pIC50) of 8.16.

For the compound `CC1(C#Cc2cncc3c2CCCN3c2nc(=O)[nH]c3ccc(F)c(F)c23)CC1` [Example 107, 5,6-difluoro-4-(5-((1-methylcyclopropyl)ethynyl)-3,4-dihydro-1,7-naphthyridin-1(2H)-yl)quinazolin-2(1H)-one], the pEC50 in assay [1] is 9.22. For the same compound, in assay [2], the pIC50 is 8.10.

As for `O=c1nc(N2CCCc3c(C#CC4(C(F)F)CC4)cncc32)c2c(F)c(F)ccc2[nH]1` [Example 108, 4-(5-((1-(difluoromethyl)cyclopropyl)ethynyl)-3,4-dihydro-1,7-naphthyridin-1(2H)-yl)-5,6-difluoroquinazolin-2(1H)-one], the pEC50 in assay [1] was 8.84. In addition, the pIC50 in assay [2] was 8.16.

In the case of `[2H]C([2H])([2H])n1c(=O)nc(N2CCOCc3c(C#CC(C)(C)C(F)(F)F)cccc32)c2c(F)cccc21` [Example 109, 5-fluoro-1-(methyl-d3)-4-(6-(4,4,4-trifluoro-3,3-dimethylbut-1-yn-1-yl)-2,3-dihydrobenzo[e][1,4]oxazepin-1(5H)-yl)quinazolin-2(1H)-one], the negative logarithm of the EC50 (pEC50) in assay [1] is 9.30. The compound also showed a pIC50 in assay [2] of 8.22.

`CC(C)(C#N)C#Cc1cccc2c1COCCN2c1nc(=O)[nH]c2cccc(F)c12` [Example 110, 4-(1-(5-fluoro-2-oxo-1,2-dihydroquinazolin-4-yl)-1,2,3,5-tetrahydrobenzo[e][1,4]oxazepin-6-yl)-2,2-dimethylbut-3-ynenitrile]: the pEC50 in assay [1] is 8.55. The same compound gave a negative logarithm of the IC50 (pIC50) in assay [2] of 8.19.

As for `[2H]C([2H])([2H])n1c(=O)nc(N(CC(F)F)c2cccc(C#CC(C)(C)O)c2F)c2c(F)cccc21` [Example 111, 4-[N-(2,2-difluoroethyl)-2-fluoro-3-(3-hydroxy-3-methyl-but-1-ynyl)anilino]-5-fluoro-1-(trideuteriomethyl)quinazolin-2-one], the negative-log EC50 (pEC50) in assay [1] was 8.03. Further, in assay [2], the pIC50 is 8.51.

For `CC(F)(F)C1(C#Cc2cccc3c2COCCN3c2nc(=O)[nH]c3cccc(F)c23)CC1` [Example 112, 4-(6-((1-(1,1-difluoroethyl)cyclopropyl)ethynyl)-2,3-dihydrobenzo[e][1,4]oxazepin-1(5H)-yl)-5-fluoroquinazolin-2(1H)-one], the negative logarithm of the EC50 (pEC50) in assay [1] is 9.01. The pIC50 in assay [2] was 7.63.

Take `CC(C)(O)C#Cc1nccc(N(CC(F)F)c2nc(=O)[nH]c3cccc(F)c23)c1F` [Example 113, 4-[2,2-difluoroethyl-[3-fluoro-2-(3-hydroxy-3-methyl-but-1-ynyl)-4-pyridyl]amino]-5-fluoro-1H-quinazolin-2-one]: the pEC50 in assay [1] is 7.18. Also, in assay [2], the negative-log IC50 (pIC50) was 7.98.

Take `CC(C)(O)C#Cc1cc(F)cc(N(CC(F)F)c2nc(=O)[nH]c3c(Cl)cc(F)cc23)c1` [Example 114, 8-chloro-4-[N-(2,2-difluoroethyl)-3-fluoro-5-(3-hydroxy-3-methyl-but-1-ynyl)anilino]-6-fluoro-1H-quinazolin-2-one]: the negative-log EC50 (pEC50) in assay [1] was 6.95. The compound also had a negative-log IC50 (pIC50) in assay [2] of 6.35.

In the case of `CC1(C#Cc2nccc(N(CC(F)F)c3nc(=O)[nH]c4cccc(F)c34)c2F)CC1` [Example 115, 4-[2,2-difluoroethyl-[3-fluoro-2-[2-(1-methylcyclopropyl)ethynyl]-4-pyridyl]amino]-5-fluoro-1H-quinazolin-2-one], the pEC50 in assay [1] is 8.92. The same compound showed a pIC50 in assay [2] of 8.22.

`O=c1nc(N2CCCc3c2ccnc3C#CC2(C(F)(F)F)CC2)c2c(F)c(F)ccc2[nH]1` [Example 116, 5,6-difluoro-4-[5-[2-[1-(trifluoromethyl)cyclopropyl]ethynyl]-3,4-dihydro-2H-1,6-naphthyridin-1-yl]-1H-quinazolin-2-one]: the pEC50 in assay [1] is 9.02. The negative logarithm of the IC50 (pIC50) in assay [2] was 8.39.

With `[2H]C([2H])([2H])n1c(=O)nc(N(CC(F)F)c2ccnc(C#CC3(C)CC3)c2)c2c(F)c(F)ccc21` [Example 117, 4-[2,2-difluoroethyl-[2-[2-(1-methylcyclopropyl)ethynyl]-4-pyridyl]amino]-5,6-difluoro-1-(trideuteriomethyl)quinazolin-2-one], the pEC50 in assay [1] was 8.33. In assay [2], this compound gave a negative logarithm of the IC50 (pIC50) of 8.47.

With `O=c1nc(N(CC(F)F)c2ccnc(C#CC3(C(F)(F)F)CC3)c2F)c2c(F)cccc2[nH]1` [Example 118, 4-[2,2-difluoroethyl-[3-fluoro-2-[2-[1-(trifluoromethyl)cyclopropyl]ethynyl]-4-pyridyl]amino]-5-fluoro-1H-quinazolin-2-one], the pEC50 in assay [1] is 8.43. Also, in assay [2], the pIC50 is 7.59.

With `CC(C)(C#N)C#Cc1nccc(N(CC(F)F)c2nc(=O)[nH]c3cccc(F)c23)c1F` [Example 119, 4-[4-[2,2-difluoroethyl-(5-fluoro-2-oxo-1H-quinazolin-4-yl)amino]-3-fluoro-2-pyridyl]-2,2-dimethyl-but-3-ynenitrile], in assay [1], the pEC50 was 8.15. The compound also showed a pIC50 in assay [2] of 7.97.

For the compound `[2H]C([2H])([2H])n1c(=O)nc(N(CC(F)F)c2ccnc(C#Cc3cnn(C)c3)c2)c2c(F)c(F)ccc21` [Example 120, 4-[2,2-difluoroethyl-[2-[2-(1-methylpyrazol-4-yl)ethynyl]-4-pyridyl]amino]-5,6-difluoro-1-(trideuteriomethyl)quinazolin-2-one], the pEC50 in assay [1] is 7.46. In assay [2], the pIC50 was 8.24.

Consider `CC(C)(C#Cc1nccc(N(CC(F)F)c2nc(=O)[nH]c3cccc(F)c23)c1F)C(F)F` [Example 121, 4-[[2-(4,4-difluoro-3,3-dimethyl-but-1-ynyl)-3-fluoro-4-pyridyl]-(2,2-difluoroethyl)amino]-5-fluoro-1H-quinazolin-2-one], for which the negative-log EC50 (pEC50) in assay [1] is 8.07. The same compound showed a pIC50 in assay [2] of 7.68.

Take `O=c1nc(N(CC(F)F)c2ccnc(C#CC3CC3)c2F)c2c(F)cccc2[nH]1` [Example 122, 4-[[2-(2-cyclopropylethynyl)-3-fluoro-4-pyridyl]-(2,2-difluoroethyl)amino]-5-fluoro-1H-quinazolin-2-one]: the negative logarithm of the EC50 (pEC50) in assay [1] is 8.46. Also, the pIC50 in assay [2] was 8.15.

As for `[2H]C([2H])([2H])n1c(=O)nc(N(CC(F)F)c2ccnc(C#CC(C)(C)C(F)F)c2F)c2c(F)cccc21` [Example 123, 4-[[2-(4,4-difluoro-3,3-dimethyl-but-1-ynyl)-3-fluoro-4-pyridyl]-(2,2-difluoroethyl)amino]-5-fluoro-1-(trideuteriomethyl)quinazolin-2-one], the negative-log EC50 (pEC50) in assay [1] was 8.62. In addition, the negative-log IC50 (pIC50) in assay [2] was 8.19.

Regarding `[2H]C([2H])([2H])n1c(=O)nc(N(CC(F)F)c2ccnc(C#CC3(C(F)(F)F)CC3)c2F)c2c(F)cccc21` [Example 124, 4-[2,2-difluoroethyl-[3-fluoro-2-[2-[1-(trifluoromethyl)cyclopropyl]ethynyl]-4-pyridyl]amino]-5-fluoro-1-(trideuteriomethyl)quinazolin-2-one], the negative-log EC50 (pEC50) in assay [1] is 8.90. Besides, the pIC50 in assay [2] is 7.92.

Regarding `CC(C)(C#Cc1nccc(N(CC(F)F)c2nc(=O)[nH]c3cccc(F)c23)c1F)C(F)(F)F` [Example 125, 4-[2,2-difluoroethyl-[3-fluoro-2-(4,4,4-trifluoro-3,3-dimethyl-but-1-ynyl)-4-pyridyl]amino]-5-fluoro-1H-quinazolin-2-one], in assay [1], the negative logarithm of the EC50 (pEC50) was 8.66. This compound also showed a pIC50 in assay [2] of 7.39.

For the compound `O=c1nc(N(CC(F)F)c2ccnc(C#CC3(C(F)F)CC3)c2F)c2c(F)cccc2[nH]1` [Example 126, 4-[2,2-difluoroethyl-[2-[2-[1-(difluoromethyl)cyclopropyl]ethynyl]-3-fluoro-4-pyridyl]amino]-5-fluoro-1H-quinazolin-2-one], in assay [1], the negative-log EC50 (pEC50) was 8.47. For the same compound, in assay [2], the pIC50 is 7.74.

`CC(C)(O)C#Cc1cccc2c1CCCN2c1nc(=O)[nH]c2cccc(Cl)c12` [Example 127, 5-chloro-4-[5-(3-hydroxy-3-methyl-but-1-ynyl)-3,4-dihydro-2H-quinolin-1-yl]-1H-quinazolin-2-one]: the pEC50 in assay [1] is 8.41. In assay [2], this compound had a negative logarithm of the IC50 (pIC50) of 8.06.

As for `[2H]C([2H])([2H])n1c(=O)nc(N(CC(F)F)c2ccnc(C#CC(C)(C)O)c2F)c2c(F)cccc21` [Example 128, 4-[2,2-difluoroethyl-[3-fluoro-2-(3-hydroxy-3-methyl-but-1-ynyl)-4-pyridyl]amino]-5-fluoro-1-(trideuteriomethyl)quinazolin-2-one], in assay [1], the pEC50 was 7.39. Also, in assay [2], the pIC50 was 8.13.
